In patent US9346809B2 (LEO PHARMA A/S, priority 2009, dated 2016):
Read-outs that look alike come from different tables or passages of the source.

Columns and labels:
Type in all cases: biochemical
[1] = biological target: T1, JAK1 (aa 850-1154, catalytic domain, GST-tag) (Homo sapiens, UniProt P23458); experiment: JAK kinase assay (HTRF, phosphorylation of TK substrate-biotin), JAK1; settings: ATP at Km (7 μM)
T1 construct: JAK1 (aa 850-1154) and TYK2 (aa 871-1187) are expressed with an N-terminally fused GST-tag; GST (N); purchased Carna Biosciences, Inc; host or cells: baculovirus expression system
Method: (§1) Human baculovirus-expressed JAK1, 2, 3 and TYK2 were purchased from Carna Biosciences, Inc. All four purified enzymes contain only the catalytic domain. JAK1 (aa 850-1154) and TYK2 (aa 871-1187) are expressed with an N-terminally fused GST-tag, and JAK2 and JAK3 with an N-terminally fused His-tag.
(§2) Inhibition of phosphorylation of a synthetic peptide was measured in an HTRF-based assay using the TK substrate-Biotin from the Cisbio HTRFKinEASE TK kit. First, 2 μl of TK solution (TK substrate-biotin in kinase buffer [1× enzymatic buffer from HTRFKinEASE TK kit, 1 mM DTT]) is added to a plate containing 1 μl prediluted compound (final assay concentration DMSO: 0.75%). Then, 5 μl kinase-ATP mix (prepared in kinase buffer) is added to the wells and the plates are incubated at RT for 20-30 min. For all four kinases a concentration of ATP that corresponded to the Km for ATP was used. The final concentrations of buffers, substrate, kinase and ATP were: JAK1: 50 mM Hepes buffer pH 7.0, 0.01% BSA, 10 mM MgCl2, 1 mM DTT, 7 μM ATP, 50 nM SEB, 1 μM TK Substrate-Biotin and 5 ng JAK1; JAK2: 50 mM Hepes buffer pH 7.0, 0.01% BSA, 5 mM MgCl2, 1 mM DTT, 4 μM ATP, 1 μM TK Substrate-Biotin and 0.1 ng JAK2; JAK3: 50 mM Hepes buffer pH 7.0, 0.01% BSA, 5 mM MgCl2, 1 mM DTT, 2 μM ATP, 1 μM TK Substrate-Biotin and 0.3 ng JAK3; TYK2: 50 mM Hepes buffer pH 7.0, 0.01% BSA, 5 mM MgCl2, 1 mM DTT, 13 μM ATP, 50 nM SEB, 1 μM TK Substrate-Biotin and 0.8 ng TYK2. Thereafter, the kinase reaction is stopped by adding 4 μl detection mix (final concentrations: 50 mM Hepes buffer pH 7.0, 0.01% BSA, 0.8 M KF, 20 mM EDTA, 42 nM Streptavidin-XL665 and 1:400 STK Ab Cryptate) and the plates are incubated overnight in the dark. The HTRF signal is read using an Envision plate reader.
(§3) In Table 1 selected JAK kinase inhibitory activities are listed with the following indicators: I: EC50<100 nM, II: 100 nM≦EC50≦500 nM and III: EC50>500 nM

[2] = biological target: T2, JAK3 (catalytic domain, His-tag) (Homo sapiens, UniProt P52333); experiment: JAK kinase assay (HTRF, phosphorylation of TK substrate-biotin), JAK3; settings: ATP at Km (2 μM)
T2 construct: All four purified enzymes contain only the catalytic domain; His (N); purchased Carna Biosciences, Inc; host or cells: baculovirus expression system
Method: as §1, §2, §3

[3] = biological target: T3, JAK2 (catalytic domain, His-tag) (Homo sapiens, UniProt O60674); experiment: JAK kinase assay (HTRF, phosphorylation of TK substrate-biotin), JAK2; settings: ATP at Km (4 μM)
T3 construct: All four purified enzymes contain only the catalytic domain; His (N); purchased Carna Biosciences, Inc; host or cells: baculovirus expression system
Method: as §1, §2, §3

[4] = biological target: T4, TYK2 (aa 871-1187, catalytic domain, GST-tag) (Homo sapiens, UniProt P29597); experiment: JAK kinase assay (HTRF, phosphorylation of TK substrate-biotin), TYK2; settings: ATP at Km (13 μM)
T4 construct: JAK1 (aa 850-1154) and TYK2 (aa 871-1187) are expressed with an N-terminally fused GST-tag; GST (N); purchased Carna Biosciences, Inc; host or cells: baculovirus expression system
T4 sequence (P29597 871-1187): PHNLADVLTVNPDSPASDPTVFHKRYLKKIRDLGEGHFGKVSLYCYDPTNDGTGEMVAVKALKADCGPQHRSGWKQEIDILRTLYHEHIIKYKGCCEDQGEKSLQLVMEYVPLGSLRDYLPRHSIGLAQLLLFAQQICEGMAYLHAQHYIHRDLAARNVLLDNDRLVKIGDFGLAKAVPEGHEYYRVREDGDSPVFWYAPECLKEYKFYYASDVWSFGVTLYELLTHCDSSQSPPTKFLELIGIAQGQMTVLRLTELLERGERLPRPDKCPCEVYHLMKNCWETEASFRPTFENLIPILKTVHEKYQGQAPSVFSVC
Method: as §1, §2, §3

[5] = read-out: JAK1 kinase inhibitory activity (EC50 indicator)
[6] = read-out: JAK3 kinase inhibitory activity (EC50 indicator)
[7] = read-out: JAK2 kinase inhibitory activity (EC50 indicator)
[8] = read-out: TYK2 kinase inhibitory activity (EC50 indicator)
[9] = HTRF assay, read-out: JAK1 kinase inhibitory activity (EC50 indicator)
[10] = HTRF assay, read-out: JAK3 kinase inhibitory activity (EC50 indicator)
[11] = HTRF assay, read-out: JAK2 kinase inhibitory activity (EC50 indicator)
[12] = HTRF assay, read-out: TYK2 kinase inhibitory activity (EC50 indicator)

T2 sequence (P52333 822-1111 limits assumed): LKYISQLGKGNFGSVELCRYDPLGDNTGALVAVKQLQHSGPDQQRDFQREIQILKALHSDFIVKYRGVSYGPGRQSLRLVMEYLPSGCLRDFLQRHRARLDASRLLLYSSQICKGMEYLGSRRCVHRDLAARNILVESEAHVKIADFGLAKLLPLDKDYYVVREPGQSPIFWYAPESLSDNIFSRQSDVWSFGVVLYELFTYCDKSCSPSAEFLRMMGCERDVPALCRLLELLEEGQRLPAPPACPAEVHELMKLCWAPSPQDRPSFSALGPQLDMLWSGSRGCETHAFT
T3 sequence (O60674 849-1124 limits assumed): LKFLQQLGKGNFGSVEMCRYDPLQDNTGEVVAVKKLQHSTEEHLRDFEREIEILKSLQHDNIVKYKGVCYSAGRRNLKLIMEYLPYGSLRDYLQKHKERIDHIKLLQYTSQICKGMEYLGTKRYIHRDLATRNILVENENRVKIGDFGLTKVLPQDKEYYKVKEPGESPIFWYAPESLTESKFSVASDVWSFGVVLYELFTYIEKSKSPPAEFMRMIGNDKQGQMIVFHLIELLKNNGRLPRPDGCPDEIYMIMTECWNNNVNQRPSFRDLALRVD
T1 sequence (P23458 850-1154): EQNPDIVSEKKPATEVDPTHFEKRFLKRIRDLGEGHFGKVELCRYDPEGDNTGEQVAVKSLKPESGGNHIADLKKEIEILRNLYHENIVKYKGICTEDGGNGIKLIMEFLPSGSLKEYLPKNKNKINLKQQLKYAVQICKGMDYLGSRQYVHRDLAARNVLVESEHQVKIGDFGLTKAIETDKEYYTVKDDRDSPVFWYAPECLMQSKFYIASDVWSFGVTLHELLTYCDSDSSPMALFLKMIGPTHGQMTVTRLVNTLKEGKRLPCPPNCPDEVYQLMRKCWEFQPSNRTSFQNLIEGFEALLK

Compound	EC50 [1, 5] [nM]	EC50 [2, 6] [nM]	EC50 [3, 7] [nM]	EC50 [4, 8] [nM]	EC50 [1, 9] [nM]	EC50 [2, 10] [nM]	EC50 [3, 11] [nM]	EC50 [4, 12] [nM]	other results
O=C(C1CCS(=O)(=O)CC1)N1CCN(c2ncnc3[nH]ccc23)CC12CC2 [Example 13, (1,1-Dioxo-hexahydro-1lambda*6*-thiopyran-4-yl)[7-(7H-pyrrolo[2,3-d]pyrimidin-4-yl)-4,7-diazaspiro[2.5]oct-4-yl]methanone]	100 to 500	100 to 500	100 to 500	> 500	–	–	–	–	–
N#CCCCC(=O)N1CCN(c2ncnc3[nH]ccc23)CC12CC2 [Example 298, 5-Oxo-5-[7-(7H-pyrrolo[2,3-d]pyrimidin-4-yl)-4,7-diaza-spiro[2.5]oct-4-yl]-pentanenitrile]	–	–	–	–	< 100	< 100	< 100	100 to 500	–
O=C(c1cccs1)N1CCN(c2ncnc3[nH]ccc23)CC12CC2 [Example 211, [7-(7H-Pyrrolo[2,3-d]pyrimidin-4-yl)-4,7-diaza-spiro[2.5]oct-4-yl]-thiophen-2-yl-methanone]	–	–	–	–	< 100	< 100	< 100	100 to 500	–
Cc1ccc2[nH]c(C(=O)N3CCN(c4ncnc5[nH]ccc45)CC34CC4)cc2c1 [Example 184, (5-Methyl-1H-indol-2-yl)-[7-(7H-pyrrolo[2,3-d]pyrimidin-4-yl)-4,7-diaza-spiro[2.5]oct-4-yl]-methanone]	< 100	< 100	< 100	100 to 500	–	–	–	–	–
NS(=O)(=O)c1ccc(OCCC(=O)N2CCN(c3ncnc4[nH]ccc34)CC23CC3)cc1 [Example 452, 4-{3-Oxo-3-[7-(7H-pyrrolo[2,3-d]pyrimidin-4-yl)-4,7-diaza-spiro[2.5]oct-4-yl]-propoxy}-benzenesulfonamide]	–	–	–	–	–	–	–	–	EC50 ([1]; HTRF assay, read-out: JAK1 kinase inhibitory activity (EC50)): < 100 nM; EC50 ([2]; HTRF assay, read-out: JAK3 kinase inhibitory activity (EC50)): < 100 nM; EC50 ([3]; HTRF assay, read-out: JAK2 kinase inhibitory activity (EC50)): < 100 nM; EC50 ([4]; HTRF assay, read-out: TYK2 kinase inhibitory activity (EC50)): > 500 nM
N#CC1(C(=O)N2CCN(c3nc(N)nc4[nH]ccc34)CC23CC3)CC1 [Example 308, 1-[7-(2-Amino-7H-pyrrolo[2,3-d]pyrimidin-4-yl)-4,7-diaza-spiro[2.5]octane-4-carbonyl]-cyclopropanecarbonitrile]	–	–	–	–	100 to 500	100 to 500	< 100	> 500	–
Cc1c(C(=O)N2CCN(c3ncnc4[nH]ccc34)CC23CC3)[nH]c2ccc(F)cc12 [Example 185, (5-Fluoro-3-methyl-1H-indol-2-yl)-[7-(7H-pyrrolo[2,3-d]pyrimidin-4-yl)-4,7-diaza-spiro[2.5]oct-4-yl]-methanone]	100 to 500	> 500	100 to 500	> 500	–	–	–	–	–
N#Cc1cccc(C(=O)N2CCN(c3ccnc4[nH]ccc34)CC23CC3)c1 [Example 227, 3-[7-(1H-Pyrrolo[2,3-b]pyridin-4-yl)-4,7-diaza-spiro[2.5]octane-4-carbonyl]-benzonitrile]	–	–	–	–	< 100	100 to 500	< 100	> 500	–
O=C1CCC(C(=O)N2CCN(c3ncnc4[nH]ccc34)CC23CC3)CC1 [Example 23, 4-[7-(7H-Pyrrolo[2,3-d]pyrimidin-4-yl)-4,7-diazaspiro[2.5]octane-4-carbonyl]cyclohexanone]	< 100	< 100	< 100	100 to 500	–	–	–	–	–
O=C(N1CCN(c2ncnc3[nH]ccc23)CC12CC2)C1(c2ccccc2)CC1 [Example 154, (1-Phenyl-cyclopropyl)-[7-(7H-pyrrolo[2,3-d]pyrimidin-4-yl)-4,7-diaza-spiro[2.5]oct-4-yl]-methanone]	100 to 500	> 500	< 100	> 500	–	–	–	–	–
O=C([C@@H]1CCCc2ccccc21)N1C2CCC1CN(c1ncnc3[nH]ccc13)C2 [Example 137, [3-(7H-Pyrrolo[2,3-d]pyrimidin-4-yl)-3,8-diaza-bicyclo[3.2.1]oct-8-yl]-(1,2,3,4-tetrahydro-naphthalen-1-yl)-methanone]	> 500	> 500	100 to 500	> 500	–	–	–	–	–

The next lines start with results.

EC50 [1, 5] [nM]	EC50 [2, 6] [nM]	EC50 [3, 7] [nM]	EC50 [4, 8] [nM]	EC50 [1, 9] [nM]	EC50 [2, 10] [nM]	EC50 [3, 11] [nM]	EC50 [4, 12] [nM]	Compound	other results
–	–	–	–	< 100	< 100	< 100	100 to 500	O=C(c1ccc2cc[nH]c2c1)N1[C@@H]2CC[C@@H]1CN(c1ncnc3[nH]ccc13)C2 [Example 357, (1H-Indol-6-yl)-[3-(7H-pyrrolo[2,3-d]pyrimidin-4-yl)-3,8-diaza-bicyclo[3.2.1]oct-8-yl]-methanone]	–
–	–	–	–	> 500	> 500	> 500	> 500	N#Cc1ccc(CC(=O)N2C[C@@H]3C[C@H]2CN3c2ncnc3[nH]ccc23)cc1 [Example 278, 4-{2-Oxo-2-[5-(7H-pyrrolo[2,3-d]pyrimidin-4-yl)-2,5-diaza-bicyclo[2.2.1]hept-2-yl]-ethyl}-benzonitrile]	–
100 to 500	100 to 500	100 to 500	> 500	–	–	–	–	O=C(C1Cc2ccccc21)N1C2CCC1CN(c1ncnc3[nH]ccc13)C2 (stereo not drawn) [Example 132, Bicyclo[4.2.0]octa-1(6),2,4-trien-7-yl-[3-(7H-pyrrolo[2,3-d]pyrimidin-4-yl)-3,8-diaza-bicyclo[3.2.1]oct-8-yl]-methanone]	–
100 to 500	100 to 500	< 100	> 500	–	–	–	–	N#Cc1ccc(C(F)(F)C(=O)N2[C@@H]3CC[C@H]2CN(c2ncnc4[nH]ccc24)C3)cc1 [Example 65, 4-{1,1-Difluoro-2-oxo-2-[3-(7H-pyrrolo[2,3-d]pyrimidin-4-yl)-3,8-diaza-bicyclo[3.2.1]oct-8-yl]-ethyl}-benzonitrile]	–
–	–	–	–	< 100	100 to 500	< 100	> 500	O=C(c1ccccc1)N1[C@@H]2CC[C@@H]1CN(c1ncnc3[nH]ccc13)C2 [Example 240, Phenyl-[3-(7H-pyrrolo[2,3-d]pyrimidin-4-yl)-3,8-diaza-bicyclo[3.2.1]oct-8-yl]-methanone]	–
–	–	–	–	< 100	100 to 500	< 100	> 500	N#CCOc1cccc(C(=O)N2[C@@H]3CC[C@@H]2CN(c2ncnc4[nH]ccc24)C3)c1 [Example 343, {3-[3-(7H-Pyrrolo[2,3-d]pyrimidin-4-yl)-3,8-diaza-bicyclo[3.2.1]octane-8-carbonyl]-phenoxy}-acetonitrile]	–
< 100	< 100	< 100	> 500	–	–	–	–	O=C(c1cc2ccccc2s1)N1[C@@H]2CC[C@@H]1CN(c1ncnc3[nH]ccc13)C2 [Example 169, Benzo[b]thiophen-2-yl-[3-(7H-pyrrolo[2,3-d]pyrimidin-4-yl)-3,8-diaza-bicyclo[3.2.1]oct-8-yl]-methanone]	–
